Literature values as cited in patent US20260041141A1, “AEROSOL-GENERATING ARTICLE WITH AN ISOLATED AVERSIVE COMPONENT” (PHILIP MORRIS PRODUCTS S.A., priority 2022, published 2026).
Structures can show the parent of a compound that is named as a salt.

Settings: reciprocal of the dilution that still has a bitter taste; quinine hydrochloride reference set at 200,000

Row | Compound | Bitterness value
1 | C[C@@]12C[C@@H](c3ccoc3)OC(=O)[C@@H]1CC[C@]1(C)[C@H]2[C@@H]2C=C[C@@]1(O)C(=O)O2 [Columbin] | 60,000,000
2 | C=C[C@H]1C[N@@]2CC[C@H]1C[C@H]2[C@H](O)c1ccnc2ccc(OC)cc12 [Quinine hydrochloride] | 200,000
3 | CC1=C[C@H]2[C@H]3[C@H](C(C)=C4[C@H]5OC(=O)[C@@H](C)[C@@H]5CC[C@](C)(O)[C@@H]43)[C@@]13[C@@H]2[C@@](C)(O)CC[C@H]1[C@H](C)C(=O)O[C@@H]13 [Absinthin] | 3,000,000
4 | COC1=C[C@@H](C)[C@@H]2C[C@H]3OC(=O)C[C@H]4C(C)=C(OC)C(=O)[C@H]([C@@]2(C)C1=O)[C@@]34C [Quassin] | 13,000,000
5 | Amarogentin | 58,000,000
